# How the values were obtained:
# [1] = Rat xenograft model of human renal cell adenocarcinoma: docetaxel concentration in tumor tissue, LC-MS/MS; format: in vivo, Sprague-Dawley Rag2; Il2rg null (SRG) rat; settings: 38 days following the last of three weekly cycles IV (5-[…]); LOQ 1.00 ng/g
# Protocol: A calibration curve, prepared in rat control tumor tissue homogenate, was analyzed at the beginning and the end of each analytical run. Two sets of quality control (QC) samples were prepared at four concentration levels (low, mid-1, mid-2 and high) and were used to ensure reliability of the assay.
# [2] = tested on: UM-UC-3 bladder cancer cell line (ATCC-CRL-1749) tumors; test: Human bladder cancer (UM-UC-3) mouse xenograft study: tumor volume, body weight, histology; format: in vivo, Hsd:Athymic Nude-Foxn1nu nude mice
# Protocol: Tumor volume was determined with calipers. […] Animals were weighed 2×/week.
# At day 18 after tumor implant, when average tumor size was between 50-325 mm^3, animals were sorted into five groups with equal average tumor sizes and were treated as shown in Table 25 below.
# For IT administration (Vehicle/NANODOCE®), injections (using 27 G, ½″ needle) were administered at three sites within the tumor (total calculated injection volume based on 40 mg/mL NANODOCE® stock and 25 g mouse=63 μL; split evenly across the three injection sites) to maximize distribution of the test formulation throughout the tumor. The second treatments (2nd cycle) occurred 7 days following first treatment (1st cycle) and third treatments (3rd cycle) occurred 14 days following the first treatment. The docetaxel solution IV was administered via the tail vein.
# The test formulations were prepared as follows: • Vehicle (Control): Diluted 1 ml of the 1% Polysorbate 80/8% Ethanol in normal saline (0.9% Sodium Chloride for Injection) reconstitution solution with 1.5 mL of normal saline (0.9% Sodium Chloride for Injection, USP). The final concentration of polysorbate 80 was 0.4% and the final concentration of ethanol was 3.2% in the Vehicle. • NANODOCE® Suspension: Added 1 ml of the 1% Polysorbate 80/8% Ethanol in normal saline (0.9% Sodium Chloride for Injection) reconstitution solution into the vial of NANODOCE® particles powder (100 mg/60 cc vial). The mean particle size (number) of the NANODOCE® particles powder was 1.0 micron. Vigorously hand shook the vial with inversions for 1 minute. […] Vortexed to mix.
# [3] = tested on: human renal cell adenocarcinoma (786-0 cell line); test: Rat xenograft model of human renal cell adenocarcinoma: histology and immunohistochemistry of residual tumors; format: in vivo, Sprague-Dawley Rag2; Il2rg null (SRG) rat
# Protocol: Microscopic Examination: Tissues fixed with 10% NBF were embedded in paraffin. Each tumor was cut into 2-3 pieces and embedded and sectioned together.
# The lymphohistiocytic infiltrate density based on assessment of […] and immunohistochemical staining with CD11b, graded semi quantitatively is shown in Table 31.
# A review was conducted on the morphologic and immunohistochemical features of a subset of 14 female rats from the renal cell carcinoma study aimed to assess the efficacy of intratumoral NanoDoce® (the total study contained 30 animals). […] The NanoDoce® group was separated into three groups based on the number of administered cycles: group 1 (1 cycle; 3 animals), group 2 (2 cycles; 3 animals), and group 3 (3 cycles; 2 animals).
# [4] = tested on: human renal cell adenocarcinoma (786-0 cell line); test: Rat xenograft model of human renal cell adenocarcinoma: tumor volume, body weight, observations; format: in vivo, Sprague-Dawley Rag2; Il2rg null (SRG) rat; settings: IV, 3 weekly cycles
Compound,animals evaluated with a detectable docetaxel level in tumor tissue [1],docetaxel level in tumor tissue [1] [ng/g],histology general observations (H&E) ([2]; Docetaxel Solution IV 3 cycles),"initial animal weight loss compared with NanoDoce IT 1, 2 and 3 cycles ([2]; IV 3 cycles)",signs of peripheral neuropathy compared with NanoDoce IT 3 cycles ([2]; IV 3 cycles),treatment effect relative to initial tumor size ([2]; IV 3 cycles),"tumor volumes over time ([2]; IV 3 cycles (weekly), 61 days)","histology (H&E) compared with vehicle control ([3]; IV 3 cycles, female rat)","Number of animals with residual viable tumor >10 mm (maximum cross-sectional dimension of viable carcinoma on slide) ([3]; IV docetaxel QWX3, 2 animals evaluated)","residual viable carcinoma nodule, maximum dimension on the slide ([3]; both IV docetaxel animals)",morphologic and immunohistochemical appearance ([3]; two IV docetaxel cases (3 cycles)),tumor growth compared to vehicle control [4],"Number of animals with <5% of tissue showing necrosis ([3]; IV docetaxel, 2 animals)","Number of animals with Mild lymphohistiocytic infiltrate density (H&E and CD11b IHC, semi quantitative) ([3]; IV docetaxel, 2 animals)"
"CC(=O)OC12CO[C@@H]1C[C@H](O)[C@@]1(C)C(=O)[C@H](O)C3=C(C)[C@@H](OC(=O)[C@H](O)[C@@H](NC(=O)OC(C)(C)C)c4ccccc4)C[C@@](O)([C@@H](OC(=O)c4ccccc4)[C@H]21)C3(C)C (some centres unmarked) [Docetaxel, docetaxel]",one of four,21.8,many viable appearing tumor masses with some macrophage and occasional lymphocytic response along with some tumor necrosis,generally greater,greater signs of peripheral neuropathy,"somewhat effective at treating small tumors, but not very effective in treating large tumors","decreased initially for dosages of NanoDoce® IT 1 cycle and Docetaxel IV 3 cycles, but subsequently increased",no difference,2,greater than 10 mm,identical morphologic and immunohistochemical appearance to that seen in the control and IT vehicle groups,partial tumor growth inhibition,–,–
CC(=O)O[C@@]12CO[C@@H]1C[C@H](O)[C@@]1(C)C(=O)[C@H](O)C3=C(C)[C@@H](OC(=O)[C@H](O)[C@@H](NC(=O)OC(C)(C)C)c4ccccc4)C[C@@](O)([C@@H](OC(=O)c4ccccc4)[C@H]21)C3(C)C [Doce],–,–,–,–,–,–,–,–,–,–,–,–,2,2

# From US11918691B2, “Local delivery of antineoplastic particles in combination with systemic delivery of immunotherapeutic agents for the treatment of cancer” (CRITITECH, INC., priority 2017, dated 2024)
